One test addresses T1, GPR109B (Homo sapiens, UniProt P49019).
T1 construct: purchased Eurofins DiscoverX (PathHunter gpcrMAX)
In words: PathHunter β-arrestin assay. It counts as cell-based. The following applies: screen, control agonist; CHO, 37C, 2HR.

The target in the next test is T2, EBI2 (Homo sapiens, UniProt P32249).
T2 construct: purchased Eurofins DiscoverX (PathHunter gpcrMAX)
In words: PathHunter β-arrestin assay. It counts as cell-based. The following applies: screen, control agonist; CHO, RT, 2HR.

Another test concerns the target DRD2L (Homo sapiens, UniProt P14416). In words: PathHunter β-arrestin assay. The following applies: control agonist. It counts as cell-based.
For another test, the target named is DRD2S (Homo sapiens, UniProt P14416). The following applies: screen, control agonist; CHO, RT, 2HR.
The target of another test is T3, FFAR1 (Homo sapiens, UniProt O14842).
T3 construct: purchased Eurofins DiscoverX (PathHunter gpcrMAX)
Nature of the test: PathHunter β-arrestin assay. It counts as cell-based. The following applies: screen, control agonist; DLD1, 37C, 4HR.

A further test concerns the target T4, GPR120 (Homo sapiens, UniProt Q5NUL3).
T4 construct: purchased Eurofins DiscoverX (PathHunter gpcrMAX)
In words: PathHunter β-arrestin assay. The format is cell-based. The following applies: screen, control agonist; CHO, 37C, 2HR.

For a further test, the target named is T5, EDG4 (Homo sapiens, UniProt Q9HBW0).
T5 construct: purchased Eurofins DiscoverX (PathHunter gpcrMAX)
Nature of the test: PathHunter β-arrestin assay. The format is cell-based. The settings on record: screen, control agonist; CHO, RT, 3HR.

A further test deals with T6, GPR92 (Homo sapiens, UniProt Q9H1C0).
T6 construct: purchased Eurofins DiscoverX (PathHunter gpcrMAX)
Nature of the test: PathHunter β-arrestin assay. It counts as cell-based. The following applies: screen, control agonist; CHO, RT, 3HR.

A further test has as its target T7, EDG7 (Homo sapiens, UniProt Q9UBY5).
T7 construct: purchased Eurofins DiscoverX (PathHunter gpcrMAX)
In words: PathHunter β-arrestin assay. The settings on record: screen, control agonist; CHO, RT, 3HR. The format is cell-based.

The next test has as its target T8, ADRA1B (Homo sapiens, UniProt P35368).
T8 construct: purchased Eurofins DiscoverX (PathHunter gpcrMAX)
In words: PathHunter β-arrestin assay. The format is cell-based. The settings on record: screen, control agonist; CHO, 37C, 2HR.

The next test has as its target T9, EDG1 (Homo sapiens, UniProt P21453).
T9 construct: purchased Eurofins DiscoverX (PathHunter gpcrMAX)
In words: PathHunter β-arrestin assay. The format is cell-based. The settings on record: screen, control agonist; CHO, 37C, 2HR.

The next test has as its target T10, EDG5 (Homo sapiens, UniProt O95136).
T10 construct: purchased Eurofins DiscoverX (PathHunter gpcrMAX)
In words: PathHunter β-arrestin assay. The format is cell-based. The settings on record: screen, control agonist; CHO, 37C, 2HR.

A further test deals with T11, EDG6 (Homo sapiens, UniProt O95977).
T11 construct: purchased Eurofins DiscoverX (PathHunter gpcrMAX)
In words: PathHunter β-arrestin assay. It counts as cell-based. The following applies: screen, control agonist; CHO, 37C, 4HR.

The target of another test is T12, EDG3 (Homo sapiens, UniProt Q99500).
T12 construct: purchased Eurofins DiscoverX (PathHunter gpcrMAX)
In words: PathHunter β-arrestin assay. The format is cell-based. The settings on record: screen, control agonist; CHO, 37C, 2HR.

For another test, the target named is T13, CXCR3 (Homo sapiens, UniProt P49682).
T13 construct: purchased Eurofins DiscoverX (PathHunter gpcrMAX)
T13 sequence (P49682 1-368): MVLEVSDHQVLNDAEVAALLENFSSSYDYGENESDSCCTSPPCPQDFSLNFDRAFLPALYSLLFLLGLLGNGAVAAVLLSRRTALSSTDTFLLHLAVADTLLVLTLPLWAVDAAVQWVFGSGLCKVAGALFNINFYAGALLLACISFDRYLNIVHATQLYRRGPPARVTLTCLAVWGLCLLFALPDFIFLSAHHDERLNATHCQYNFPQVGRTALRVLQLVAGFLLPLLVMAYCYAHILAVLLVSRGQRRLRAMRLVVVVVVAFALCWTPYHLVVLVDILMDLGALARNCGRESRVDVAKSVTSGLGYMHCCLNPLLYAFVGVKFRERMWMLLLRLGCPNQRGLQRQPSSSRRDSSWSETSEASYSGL
Nature of the test: PathHunter β-arrestin assay. The format is cell-based. The settings on record: screen, control agonist; CHO, 37C, 2HR.

Another test deals with T14, CXCR4 (Homo sapiens, UniProt P61073).
T14 construct: purchased Eurofins DiscoverX (PathHunter gpcrMAX)
Nature of the test: PathHunter β-arrestin assay. The following applies: screen, control agonist; C2C12, 37C, 2HR. It counts as cell-based.

The target in the next test is T15, CXCR5 (Homo sapiens, UniProt P32302).
T15 construct: purchased Eurofins DiscoverX (PathHunter gpcrMAX)
T15 sequence (P32302 1-372): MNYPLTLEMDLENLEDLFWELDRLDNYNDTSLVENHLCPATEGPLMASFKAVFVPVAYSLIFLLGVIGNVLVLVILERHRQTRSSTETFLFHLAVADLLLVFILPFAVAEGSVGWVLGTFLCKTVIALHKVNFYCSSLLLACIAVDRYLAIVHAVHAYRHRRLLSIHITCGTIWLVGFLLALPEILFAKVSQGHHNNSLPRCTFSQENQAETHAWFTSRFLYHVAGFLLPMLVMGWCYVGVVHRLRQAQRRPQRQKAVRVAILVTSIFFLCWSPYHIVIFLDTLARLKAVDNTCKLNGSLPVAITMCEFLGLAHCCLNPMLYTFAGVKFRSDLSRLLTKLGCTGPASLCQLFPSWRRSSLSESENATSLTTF
In words: PathHunter β-arrestin assay. The format is cell-based. The following applies: screen, control agonist; CHO, 37C, 2HR.

The next test deals with T16, GPR1 (Homo sapiens, UniProt P46091).
T16 construct: purchased Eurofins DiscoverX (PathHunter gpcrMAX)
T16 sequence (P46091 1-355): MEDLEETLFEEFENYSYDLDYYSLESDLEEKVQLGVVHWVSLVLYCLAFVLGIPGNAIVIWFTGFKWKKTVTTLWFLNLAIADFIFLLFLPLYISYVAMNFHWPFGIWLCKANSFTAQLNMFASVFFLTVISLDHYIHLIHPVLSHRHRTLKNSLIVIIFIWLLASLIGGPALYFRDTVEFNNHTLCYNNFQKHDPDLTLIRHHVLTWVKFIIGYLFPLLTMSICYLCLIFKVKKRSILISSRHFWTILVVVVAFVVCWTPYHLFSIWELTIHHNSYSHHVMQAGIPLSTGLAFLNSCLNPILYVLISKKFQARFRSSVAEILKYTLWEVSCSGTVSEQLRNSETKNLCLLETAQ
Nature of the test: PathHunter β-arrestin assay. The format is cell-based. The settings on record: screen, control agonist; CHO, 37C, 2HR.

The target of the next test is T17, GPR103 (Homo sapiens, UniProt Q96P65).
T17 construct: purchased Eurofins DiscoverX (PathHunter gpcrMAX)
T17 sequence (Q96P65 1-431): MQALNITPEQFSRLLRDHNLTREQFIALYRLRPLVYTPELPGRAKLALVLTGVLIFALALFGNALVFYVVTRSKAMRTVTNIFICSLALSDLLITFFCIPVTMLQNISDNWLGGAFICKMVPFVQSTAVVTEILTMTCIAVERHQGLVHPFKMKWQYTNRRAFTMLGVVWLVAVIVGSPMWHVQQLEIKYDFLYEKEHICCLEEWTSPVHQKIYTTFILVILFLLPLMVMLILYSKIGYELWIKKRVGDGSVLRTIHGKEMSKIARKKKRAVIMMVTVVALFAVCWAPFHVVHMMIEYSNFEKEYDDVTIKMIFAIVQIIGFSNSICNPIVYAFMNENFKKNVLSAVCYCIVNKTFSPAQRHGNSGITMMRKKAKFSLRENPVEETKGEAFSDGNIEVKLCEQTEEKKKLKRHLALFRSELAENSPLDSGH
In words: PathHunter β-arrestin assay. It counts as cell-based. The settings on record: screen, control agonist; CHO, RT, 2HR.

A further test addresses T18, FPRL1 (Homo sapiens, UniProt P25090).
T18 construct: purchased Eurofins DiscoverX (PathHunter gpcrMAX)
In words: PathHunter β-arrestin assay. It counts as cell-based. The following applies: screen, control agonist; CHO, 37C, 2HR.

The next test deals with T19, FPR1 (Homo sapiens, UniProt P21462).
T19 sequence (P21462 1-350): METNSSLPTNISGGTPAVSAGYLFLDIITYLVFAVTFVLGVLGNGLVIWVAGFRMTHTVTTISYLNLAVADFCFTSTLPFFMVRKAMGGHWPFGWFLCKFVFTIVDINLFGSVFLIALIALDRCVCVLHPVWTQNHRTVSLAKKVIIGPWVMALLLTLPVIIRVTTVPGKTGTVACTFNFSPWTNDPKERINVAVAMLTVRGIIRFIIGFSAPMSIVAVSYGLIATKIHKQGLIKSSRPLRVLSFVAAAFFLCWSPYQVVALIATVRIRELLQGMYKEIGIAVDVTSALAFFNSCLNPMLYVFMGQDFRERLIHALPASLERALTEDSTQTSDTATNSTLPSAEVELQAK
In words: PathHunter β-arrestin assay. The settings on record: control agonist. The format is cell-based.

For a further test, the target named is T20, CXCR6 (Homo sapiens, UniProt O00574).
T20 construct: purchased Eurofins DiscoverX (PathHunter gpcrMAX)
Nature of the test: PathHunter β-arrestin assay. It counts as cell-based. The settings on record: screen, control agonist; HEK, 37C, 2HR.

[1] abbreviates: follow-up concentration-response assays.

DRD2L, sequence (P14416 whole entry): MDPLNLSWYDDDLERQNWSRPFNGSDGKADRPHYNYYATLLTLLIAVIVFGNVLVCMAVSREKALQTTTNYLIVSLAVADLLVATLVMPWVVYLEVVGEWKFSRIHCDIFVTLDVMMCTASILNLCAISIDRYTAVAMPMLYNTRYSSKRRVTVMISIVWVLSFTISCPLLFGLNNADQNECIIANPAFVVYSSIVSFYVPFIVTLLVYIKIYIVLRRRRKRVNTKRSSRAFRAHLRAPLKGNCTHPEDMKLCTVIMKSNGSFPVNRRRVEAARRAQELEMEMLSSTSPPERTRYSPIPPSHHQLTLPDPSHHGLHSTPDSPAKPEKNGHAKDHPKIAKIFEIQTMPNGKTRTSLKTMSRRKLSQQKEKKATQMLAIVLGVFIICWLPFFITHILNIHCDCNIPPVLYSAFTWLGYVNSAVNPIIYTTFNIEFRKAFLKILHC
T3 sequence (O14842 whole entry): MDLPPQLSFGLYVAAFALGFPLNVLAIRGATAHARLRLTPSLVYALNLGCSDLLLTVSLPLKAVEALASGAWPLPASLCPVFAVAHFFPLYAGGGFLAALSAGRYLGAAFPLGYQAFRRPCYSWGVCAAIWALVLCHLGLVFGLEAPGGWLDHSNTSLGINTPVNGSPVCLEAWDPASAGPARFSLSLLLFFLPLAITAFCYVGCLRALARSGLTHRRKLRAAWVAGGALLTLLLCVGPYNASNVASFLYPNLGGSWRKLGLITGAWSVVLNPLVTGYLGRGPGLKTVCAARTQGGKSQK
T2 sequence (P32249 whole entry): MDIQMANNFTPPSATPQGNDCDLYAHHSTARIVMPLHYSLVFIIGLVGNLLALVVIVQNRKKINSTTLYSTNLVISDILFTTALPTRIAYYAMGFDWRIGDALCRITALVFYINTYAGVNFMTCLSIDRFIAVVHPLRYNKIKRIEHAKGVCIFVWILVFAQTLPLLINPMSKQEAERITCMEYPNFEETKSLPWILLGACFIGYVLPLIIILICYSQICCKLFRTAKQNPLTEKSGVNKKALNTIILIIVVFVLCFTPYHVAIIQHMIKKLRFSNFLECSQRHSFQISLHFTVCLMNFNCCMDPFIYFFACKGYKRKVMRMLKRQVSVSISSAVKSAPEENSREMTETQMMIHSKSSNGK
T8 sequence (P35368 whole entry): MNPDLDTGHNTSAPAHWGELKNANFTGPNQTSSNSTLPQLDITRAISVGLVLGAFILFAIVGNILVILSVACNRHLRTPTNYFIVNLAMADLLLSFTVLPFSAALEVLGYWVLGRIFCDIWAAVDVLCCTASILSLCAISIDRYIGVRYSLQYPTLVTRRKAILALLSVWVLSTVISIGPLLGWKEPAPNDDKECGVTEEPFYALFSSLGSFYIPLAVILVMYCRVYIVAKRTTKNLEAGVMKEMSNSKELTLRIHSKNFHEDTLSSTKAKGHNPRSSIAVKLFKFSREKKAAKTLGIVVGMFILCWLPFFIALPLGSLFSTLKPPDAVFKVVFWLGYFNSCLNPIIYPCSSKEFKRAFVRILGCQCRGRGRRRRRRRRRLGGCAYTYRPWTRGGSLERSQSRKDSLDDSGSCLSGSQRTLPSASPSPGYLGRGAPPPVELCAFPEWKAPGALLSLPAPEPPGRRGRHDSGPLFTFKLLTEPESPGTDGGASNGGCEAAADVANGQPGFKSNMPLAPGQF
T7 sequence (Q9UBY5 whole entry): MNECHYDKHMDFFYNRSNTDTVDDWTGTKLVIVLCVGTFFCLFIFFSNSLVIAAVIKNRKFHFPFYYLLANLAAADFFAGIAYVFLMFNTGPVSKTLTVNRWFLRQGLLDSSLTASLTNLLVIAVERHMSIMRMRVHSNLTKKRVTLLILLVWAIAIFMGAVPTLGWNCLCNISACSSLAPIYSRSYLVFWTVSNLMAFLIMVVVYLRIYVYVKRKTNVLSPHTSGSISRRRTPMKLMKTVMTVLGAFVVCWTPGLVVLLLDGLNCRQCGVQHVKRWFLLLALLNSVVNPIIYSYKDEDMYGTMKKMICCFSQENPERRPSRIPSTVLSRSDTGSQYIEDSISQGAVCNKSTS
T20 sequence (O00574 whole entry): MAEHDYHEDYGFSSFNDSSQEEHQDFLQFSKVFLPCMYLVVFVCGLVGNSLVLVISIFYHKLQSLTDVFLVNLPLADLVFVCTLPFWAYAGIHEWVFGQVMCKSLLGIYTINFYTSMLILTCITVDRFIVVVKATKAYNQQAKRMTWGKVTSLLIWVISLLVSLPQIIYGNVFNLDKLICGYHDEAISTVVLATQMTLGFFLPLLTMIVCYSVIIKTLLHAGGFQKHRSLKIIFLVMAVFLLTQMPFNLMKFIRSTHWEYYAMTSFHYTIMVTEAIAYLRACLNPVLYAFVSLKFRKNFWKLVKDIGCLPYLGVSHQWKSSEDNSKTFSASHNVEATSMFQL
T12 sequence (Q99500 whole entry): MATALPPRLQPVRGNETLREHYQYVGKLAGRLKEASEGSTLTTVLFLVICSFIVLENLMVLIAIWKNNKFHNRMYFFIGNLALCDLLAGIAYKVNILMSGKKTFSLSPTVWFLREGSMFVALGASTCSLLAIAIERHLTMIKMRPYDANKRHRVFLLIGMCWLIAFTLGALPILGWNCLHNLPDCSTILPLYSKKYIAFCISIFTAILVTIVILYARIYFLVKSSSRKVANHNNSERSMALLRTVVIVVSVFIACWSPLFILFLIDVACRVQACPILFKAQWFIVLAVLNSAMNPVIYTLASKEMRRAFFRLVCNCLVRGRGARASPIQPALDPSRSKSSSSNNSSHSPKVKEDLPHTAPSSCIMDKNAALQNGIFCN
T5 sequence (Q9HBW0 whole entry): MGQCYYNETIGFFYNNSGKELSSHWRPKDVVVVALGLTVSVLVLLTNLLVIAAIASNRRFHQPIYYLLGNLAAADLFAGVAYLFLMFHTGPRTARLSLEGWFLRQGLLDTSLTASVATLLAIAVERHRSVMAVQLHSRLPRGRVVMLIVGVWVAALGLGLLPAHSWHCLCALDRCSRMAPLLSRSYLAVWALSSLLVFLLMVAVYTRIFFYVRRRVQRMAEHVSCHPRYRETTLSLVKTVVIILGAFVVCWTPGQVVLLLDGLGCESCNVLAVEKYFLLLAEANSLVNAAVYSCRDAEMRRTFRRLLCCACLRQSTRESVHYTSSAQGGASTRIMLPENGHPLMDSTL
T6 sequence (Q9H1C0 whole entry): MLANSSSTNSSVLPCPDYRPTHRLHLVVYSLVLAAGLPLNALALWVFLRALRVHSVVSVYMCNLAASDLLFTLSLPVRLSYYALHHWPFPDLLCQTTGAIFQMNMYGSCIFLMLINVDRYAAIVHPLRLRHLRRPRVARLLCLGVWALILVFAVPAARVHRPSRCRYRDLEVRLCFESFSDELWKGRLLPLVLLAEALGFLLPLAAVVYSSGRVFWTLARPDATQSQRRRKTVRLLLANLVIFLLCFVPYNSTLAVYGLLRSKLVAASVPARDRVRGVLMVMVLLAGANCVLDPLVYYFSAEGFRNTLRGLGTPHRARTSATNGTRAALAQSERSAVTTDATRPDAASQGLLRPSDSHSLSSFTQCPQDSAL
T10 sequence (O95136 whole entry): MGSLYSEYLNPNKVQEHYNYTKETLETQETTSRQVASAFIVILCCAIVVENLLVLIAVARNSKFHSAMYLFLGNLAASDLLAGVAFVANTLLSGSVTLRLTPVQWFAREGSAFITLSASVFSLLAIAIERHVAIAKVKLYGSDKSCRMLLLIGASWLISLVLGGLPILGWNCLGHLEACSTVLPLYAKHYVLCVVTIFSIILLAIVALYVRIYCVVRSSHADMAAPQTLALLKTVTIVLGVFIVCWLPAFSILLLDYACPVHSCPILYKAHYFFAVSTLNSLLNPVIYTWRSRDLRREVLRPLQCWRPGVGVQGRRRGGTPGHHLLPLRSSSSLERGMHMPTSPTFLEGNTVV
T14 sequence (P61073 whole entry): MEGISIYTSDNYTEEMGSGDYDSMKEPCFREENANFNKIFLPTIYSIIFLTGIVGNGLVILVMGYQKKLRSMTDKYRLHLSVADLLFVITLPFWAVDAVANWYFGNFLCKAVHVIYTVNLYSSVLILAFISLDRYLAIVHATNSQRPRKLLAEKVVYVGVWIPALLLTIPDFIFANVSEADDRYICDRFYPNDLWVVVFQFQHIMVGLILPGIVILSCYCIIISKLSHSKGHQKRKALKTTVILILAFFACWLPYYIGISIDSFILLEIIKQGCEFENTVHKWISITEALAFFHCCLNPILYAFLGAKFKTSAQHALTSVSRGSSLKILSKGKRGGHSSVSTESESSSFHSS
T4 sequence (Q5NUL3 whole entry): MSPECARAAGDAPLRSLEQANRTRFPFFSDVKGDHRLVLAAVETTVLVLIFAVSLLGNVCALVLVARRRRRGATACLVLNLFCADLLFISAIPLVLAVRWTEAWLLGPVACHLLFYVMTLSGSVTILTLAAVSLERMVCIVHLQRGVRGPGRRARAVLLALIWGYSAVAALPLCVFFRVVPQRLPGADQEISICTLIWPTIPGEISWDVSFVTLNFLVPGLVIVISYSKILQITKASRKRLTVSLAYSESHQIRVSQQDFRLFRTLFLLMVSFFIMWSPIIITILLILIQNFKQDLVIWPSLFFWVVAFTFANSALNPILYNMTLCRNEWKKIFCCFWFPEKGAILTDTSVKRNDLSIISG
T1 sequence (P49019 whole entry): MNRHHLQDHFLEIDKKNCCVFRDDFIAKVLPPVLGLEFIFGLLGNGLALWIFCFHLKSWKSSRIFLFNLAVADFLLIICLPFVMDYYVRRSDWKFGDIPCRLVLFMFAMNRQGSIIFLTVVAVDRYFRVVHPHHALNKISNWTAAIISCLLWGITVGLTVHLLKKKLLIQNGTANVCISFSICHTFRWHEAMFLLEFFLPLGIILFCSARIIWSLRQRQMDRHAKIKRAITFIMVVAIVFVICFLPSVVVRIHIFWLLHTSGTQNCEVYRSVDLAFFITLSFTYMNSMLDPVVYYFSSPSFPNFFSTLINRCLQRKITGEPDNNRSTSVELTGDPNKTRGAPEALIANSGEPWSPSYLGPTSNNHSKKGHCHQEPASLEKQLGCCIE

For `CCCCCC(O)CC(=O)O` (stereo not drawn) [3-Hydroxyoctanoic Acid], the EC80 (usually the concentration needed for an effect of 80%) on GPR109B was 904000 nM.

As to `C[C@H](CCCC(C)(C)O)[C@H]1CC[C@H]2[C@@H]3[C@H](O)C=C4C[C@@H](O)CC[C@]4(C)[C@H]3CC[C@]12C` [7a,25-Dihydroxycholesterol], the 80% effect concentration (EC80) at EBI2 was found to be 23.3 nM.

Turning to `NCCc1ccc(O)c(O)c1` [Dopamine], the EC80 at DRD2L (setting [1]) worked out at 200 nM; at DRD2L (screen, CHO, 37C, 2HR), 100 nM; on DRD2S, 300 nM.

Regarding `O=C(O)CCc1ccc(NCc2cccc(Oc3ccccc3)c2)cc1` [GW9508], the concentration for an effect of 80% (EC80) at FFAR1 is 402 nM; at GPR120, 21500 nM.

In the case of `CCCCCCCC/C=C\CCCCCCCC(=O)OC[C@@H](O)COP(=O)(O)O` [Oleoyl LPA], the 80% effect concentration (EC80) at EDG4 was 1960 nM; at GPR92, 4280 nM; on EDG7, 3480 nM.

Regarding `CNC[C@H](O)c1cccc(O)c1` [Phenylephrine], the EC80 at ADRA1B is 133 nM.

As for `CCCCCCCCCCCCC/C=C/[C@@H](O)[C@@H](N)COP(=O)(O)O` [S-1-P], the EC80 on EDG1 was 117 nM; at EDG5, 119 nM; on EDG6 it was 180 nM; at EDG3, 194 nM.

The molecule CXCL11: control agonist yielded an EC80 in the test with CXCR3 of 17.9 nM.

CXCL12: control agonist gave an EC80 with CXCR4 of 5.15 nM.

On to CXCL13: control agonist, for which the EC80 with CXCR5 amounted to 61.3 nM. This lies in the double-digit nanomolar range.

In turn, Chemerin: control agonist gave an EC80 in the test with GPR1 of 4.61 nM.

As for QRFP-26, the EC80 in the test with GPR103 turned out to be 14.2 nM.

WKYMVm-NH2: the EC80 was 3.91 nM at FPRL1; 8.52 nM at FPR1 (setting [1]); 8.52 nM on FPR1 (screen, CHO, 37C, 2HR).

B1: CXCL16: control agonist (protein, UniProt Q9H2A7 30-254, looked up)
C-X-C motif chemokine 16: NEGSVTGSCYCGKRISSDSPPSVQFMNRLRKHLRAYHRCLYYTRFQLLSWSVCGGNKDPWVQELMSCLDLKECGHAYSGIVAHQKHLLPTSPPISQASEGASSDIHTPAQMLLSTLQSTQRPTLPVGSLSSDKELTRPNETTIHTAGHSLAAGPEAGENQKQPEKNAGPTARTSATVPVLCLLAIIFILTAALSYVLCKRRRGQSPQSSPDLPVHYIPVAPDSNT
Molecule B1 gave an EC80 with CXCR6 of 1.39 nM.

Source of the values: paper PMC9798004 (Frontiers in Psychiatry, 2022).
